Results on 2 compounds are retold here after PMC10450872 (ACS Central Science, 2023).

One assay addresses T1, human MOR (OPRM1) (Homo sapiens, UniProt P35372).
T1 construct: expressed in transfected cells
It is filed as cell-based.

In the next assay the target is T2, hKOR (OPRK1) (Homo sapiens, UniProt P41145).
T2 construct: 3HA (triple haemagglutinin tag); expressed in transfected cells
Description: cell-based. To be noted: for Emax: CHO, read-out: cAMP Emax.

The target of assay [1] is T3, hKOR (Homo sapiens, UniProt P41145).
T3 construct: β-galactosidase enzyme fragment for EFC (ProLink tag of the PathHunter system; name and presence on the receptor from own knowledge); host or cells: U2OS-β-arrestin2-EFC-hKOR (PathHunter) cells
T3 sequence (P41145 whole entry, the tested form may be a part): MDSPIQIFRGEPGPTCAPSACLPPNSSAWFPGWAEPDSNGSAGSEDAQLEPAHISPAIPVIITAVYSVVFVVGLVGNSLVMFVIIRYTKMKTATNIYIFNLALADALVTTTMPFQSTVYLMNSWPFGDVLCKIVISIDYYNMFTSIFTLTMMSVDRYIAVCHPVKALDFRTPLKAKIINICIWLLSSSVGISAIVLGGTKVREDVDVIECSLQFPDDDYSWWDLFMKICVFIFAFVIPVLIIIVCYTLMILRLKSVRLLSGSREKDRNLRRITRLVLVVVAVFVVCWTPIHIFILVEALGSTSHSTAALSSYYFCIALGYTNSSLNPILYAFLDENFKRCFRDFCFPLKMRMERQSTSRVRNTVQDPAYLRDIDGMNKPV
It is filed as cell-based.

Assay [2] addresses T3, hKOR. Description: cell-based. To be noted: for Emax: read-out: βarrestin2 Emax; for EC50: βarrestin2 pEC50.
The mark [3] stands for this setting: mean EC50 of inhibition of forskolin-stimulated cAMP accumulation via KOR.

Values joined by “and” are separate entries in the source; they are usually repeats but may differ in a detail not shown here. Equal values may be shown once.
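Throughout, for Emax: 100% = maximum response to 10 µM U69,593.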

T2 sequence (P41145 whole entry): as the sequence (P41145 whole entry, the tested form may be a part) above
T1 sequence (P35372 whole entry): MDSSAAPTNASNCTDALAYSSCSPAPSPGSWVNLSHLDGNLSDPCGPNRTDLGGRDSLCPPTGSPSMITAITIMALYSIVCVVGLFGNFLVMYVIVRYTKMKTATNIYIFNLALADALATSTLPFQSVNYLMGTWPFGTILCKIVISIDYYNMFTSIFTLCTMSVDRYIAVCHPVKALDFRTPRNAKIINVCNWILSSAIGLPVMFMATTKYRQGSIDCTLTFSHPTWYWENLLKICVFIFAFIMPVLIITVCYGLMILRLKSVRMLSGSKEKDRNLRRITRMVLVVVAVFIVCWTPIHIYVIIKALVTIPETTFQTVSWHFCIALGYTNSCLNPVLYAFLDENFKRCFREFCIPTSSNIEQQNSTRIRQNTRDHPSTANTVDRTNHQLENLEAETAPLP

For the compound `COC(=O)C1CC(OC(C)=O)C(=O)C2C3CC(c4ccccc4)CC(=NO)C3CCC12C` (stereo not drawn) [compound 37], the “selectivity for KOR over MOR” value on human MOR (OPRM1) is “high selectivity for KOR over MOR was also preserved”. Besides, the results for the Emax on hKOR (OPRK1) and on hKOR [2] were 105% and 80%, respectively. The concentration giving a half-maximal response (EC50) is 0.417 nM at hKOR (OPRK1) (cAMP pEC50), 0.4 nM on hKOR (OPRK1) (setting [3]) and 42.7 nM on hKOR [2]. Also, on hKOR [1], the “Bias Factor” value was 8.60 and 7.4–9.8. Moreover, the “ΔΔLogτ/KA (cAMP/βarr2)” value on hKOR [1] is given as 0.116.
With `COC(=O)[C@@H]1C[C@H](OC(C)=O)C(=O)[C@@H]2[C@H]3C[C@@H](c4cccc(C)c4)CC(=O)[C@@H]3CC[C@]21C` [compound 30], the values for the Emax at hKOR (OPRK1) and on hKOR [2] were 105% and 115%, respectively. Besides, the 50% effective concentration (EC50) on hKOR (OPRK1) (cAMP pEC50) was 14.5 nM; on hKOR (OPRK1) (setting [3]), 15 nM; at hKOR [2] it was 794 nM. Further, on hKOR [1], the “Bias Factor” value came to 1.26. Moreover, on hKOR [1], the “ΔΔLogτ/KA (cAMP/βarr2)” value is reported as 0.797.
